Molecular target: T1, human CD73 (Homo sapiens, UniProt P21589)
T1 sequence (P21589 27-549): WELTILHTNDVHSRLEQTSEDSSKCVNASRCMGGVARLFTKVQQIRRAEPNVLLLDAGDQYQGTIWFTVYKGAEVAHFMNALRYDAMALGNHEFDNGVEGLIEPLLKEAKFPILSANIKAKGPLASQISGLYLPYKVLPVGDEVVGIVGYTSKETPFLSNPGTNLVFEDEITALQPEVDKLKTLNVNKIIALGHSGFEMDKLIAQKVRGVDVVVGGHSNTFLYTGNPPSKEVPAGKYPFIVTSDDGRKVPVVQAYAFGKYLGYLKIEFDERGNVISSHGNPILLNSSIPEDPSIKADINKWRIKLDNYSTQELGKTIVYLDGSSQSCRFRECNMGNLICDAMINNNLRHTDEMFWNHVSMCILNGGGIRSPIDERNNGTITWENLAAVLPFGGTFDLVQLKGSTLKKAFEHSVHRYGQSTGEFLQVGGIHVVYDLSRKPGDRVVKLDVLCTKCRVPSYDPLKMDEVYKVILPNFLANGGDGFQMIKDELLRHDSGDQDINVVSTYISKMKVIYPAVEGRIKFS
Assay: Inhibition of Ecto-5′-nucleotidase (CD73) activity in CHO-CD73 cells, phosphate release from AMP
Assay type: cell-based
Conditions: CHO-K1 cells stably transfected with human CD73; 25 μM AMP; 50 minutes, 37° C.; read-out: Potency: CD73 IC50

IC50	Compound
> 1 µM	N#Cc1ccc(Cn2nccc2-c2cc(F)c3nnn(-c4ccc5c(CC(=O)O)n[nH]c5c4)c3c2)cc1 [Example 348]
> 1 µM	N#Cc1ccc(Cn2nccc2-c2cc(F)c3nnn(-c4ccc5c(CCO)n[nH]c5c4)c3c2)cc1 [Example 349]
0.1 to 1 µM	N#Cc1ccc(Cn2nccc2-c2cc(F)c3nnn(-c4ccc5c(=O)[nH][nH]c5c4)c3c2)cc1 [Example 350]
> 1 µM	N#Cc1ccc(Cn2nccc2-c2cc(F)c3nnn(-c4ccc5c(CNC(=O)CN)n[nH]c5c4)c3c2)cc1 [Example 351]
< 0.1 µM	N#Cc1ccc(Cn2nccc2-c2cc3c(nnn3-c3ccc4cn[nH]c4c3)c(=O)[nH]2)cc1 [Example 352]
> 1 µM	COCc1n[nH]c2cc(-n3nnc4c(F)cc(-c5ccnn5Cc5ccc(C#N)cc5)cc43)ccc12 [Example 353]
> 1 µM	N#Cc1ccc(Cn2nccc2-c2cc(F)c3nnn(-c4ccc(O)cc4)c3c2)cc1 [Example 354]
> 1 µM	N#Cc1ccc(Cn2nccc2-c2cc(F)c3nnn(-c4ccc5c(COCCO)n[nH]c5c4)c3c2)cc1 [Example 355]
0.1 to 1 µM	Cn1c(-c2ccnn2Cc2ccc(C#N)cc2)cc2c(nnn2-c2ccc3cn[nH]c3c2)c1=O [Example 356]
0.1 to 1 µM	COc1nc(-c2ccnn2Cc2ccc(C#N)cc2)cc2c1nnn2-c1ccc2cn[nH]c2c1 [Example 357]
0.1 to 1 µM	Cc1nn(-c2ccc3cn[nH]c3c2)c2cc(-c3ccnn3Cc3ccc(C#N)cc3)[nH]c(=O)c12 [Example 358]
0.1 to 1 µM	N#Cc1ccc(Cn2nccc2-c2cc3c(nnn3-c3ccc4[nH]c(=O)[nH]c4c3)c(=O)[nH]2)cc1 [Example 359]
0.1 to 1 µM	Cc1nn(-c2ccc3cn[nH]c3c2)c2cc(-c3ccnn3Cc3ccc(C#N)cc3)c[n+]([O-])c12 [Example 360]
> 1 µM	Cn1nc(-c2ccc3cn[nH]c3c2)c2cc(-c3ccnn3Cc3ccc(C#N)cc3)c[n+]([O-])c21 [Example 361]
0.1 to 1 µM	N#Cc1ccc(Cn2nccc2-c2cc3c(c(N)nn3-c3ccc4cn[nH]c4c3)[n+]([O-])c2)cc1 [Example 362]
0.1 to 1 µM	N#Cc1ccc(Cn2nccc2-c2cc3c(c[n+]2[O-])nnn3-c2ccc3cn[nH]c3c2)cc1 [Example 363]
< 0.1 µM	N#Cc1ccc(Cn2nccc2-c2cnc3c(N)nn(-c4cc5[nH]ncc5cc4F)c3c2)cc1 [Example 364]
> 1 µM	N#Cc1ccc(Cn2nccc2-c2cc3c(c(N)nn3-c3ccc4[nH]c(=O)[nH]c4c3)[n+]([O-])c2)cc1 [Example 365]
< 0.1 µM	[O-][n+]1cc(Cl)ccc1Cn1nccc1-c1cc(Cl)c2nnn(-c3ccc4cn[nH]c4c3)c2c1 [Example 366]
< 0.1 µM	N#Cc1ccc(Cn2nccc2-c2cc(F)c3nnn(-c4ccc5cn[nH]c5n4)c3c2)cc1 [Example 367]
0.1 to 1 µM	O=c1[nH]c2ccc(-n3nnc4c(Cl)cc(-c5ccnn5Cc5ccc(Cl)c[n+]5[O-])cc43)cc2[nH]1 [Example 369]
> 1 µM	CCc1nn(-c2ccc3cn[nH]c3c2)c2cc(-c3ccnn3Cc3ccc(C#N)cc3)cnc12 [Example 370]
0.1 to 1 µM	N#Cc1ccc(Cn2nccc2-c2cnc3c(Cl)nn(-c4ccc5cn[nH]c5c4)c3c2)cc1 [Example 371]
0.1 to 1 µM	N#Cc1ccc(Cn2nccc2-c2cc3c(nnn3-c3ccc4cn[nH]c4c3)[nH]c2=O)cc1 [Example 372]
> 1 µM	Fc1cc(-c2ccnn2C2CCCOC2)cc2c1nnn2-c1ccc2cn[nH]c2c1 (stereo not drawn) [Example 373]
0.1 to 1 µM	CC(c1ccc(Cl)cn1)n1nccc1-c1cc(Cl)c2nnn(-c3ccc4cn[nH]c4c3)c2c1 (stereo not drawn) [Example 374]
> 1 µM	OC(Cn1nccc1-c1cc(F)c2nnn(-c3ccc4cn[nH]c4c3)c2c1)c1ccccc1 (stereo not drawn) [Example 375]

IC50	Compound
> 1 µM	N#Cc1ccc(Cn2nccc2-c2cnc3c(C(F)(F)F)nn(-c4ccc5cn[nH]c5c4)c3c2)cc1 [Example 376]
0.1 to 1 µM	CC(c1ccc(Cl)cn1)n1nccc1-c1cc(F)c2nnn(-c3ccc4cn[nH]c4c3)c2c1 (stereo not drawn) [Example 377]
< 0.1 µM	N#Cc1ccc(Cn2nccc2-c2cc3c(cc2F)nnn3-c2ccc3cn[nH]c3c2)cc1 [Example 378]
0.1 to 1 µM	CC(c1ccc(Cl)c[n+]1[O-])n1nccc1-c1cc(Cl)c2nnn(-c3ccc4cn[nH]c4c3)c2c1 (stereo not drawn) [Example 379]
0.1 to 1 µM	Cc1ccc(C(C)n2nccc2-c2cc(Cl)c3nnn(-c4ccc5cn[nH]c5c4)c3c2)nc1 (stereo not drawn) [Example 380]
< 0.1 µM	Cc1ccc(Cn2nccc2-c2cc(Cl)c3nnn(-c4ccc5cn[nH]c5c4)c3c2)[n+]([O-])c1 [Example 381]
0.1 to 1 µM	CC(c1ccc(C#N)cc1)n1nccc1-c1cc2c(cc1F)nnn2-c1ccc2cn[nH]c2c1 (stereo not drawn) [Example 382]
0.1 to 1 µM	CC(c1ccc(Cl)cn1)n1nccc1-c1cc2c(cc1F)nnn2-c1ccc2cn[nH]c2c1 (stereo not drawn) [Example 383]
0.1 to 1 µM	Cc1cc2nnn(-c3ccc4cn[nH]c4c3)c2cc1-c1ccnn1Cc1ccc(C#N)cc1 [Example 384]
> 1 µM	CC(Cn1nccc1-c1cc(F)c2nnn(-c3ccc4cn[nH]c4c3)c2c1)c1ccccc1 (stereo not drawn) [Example 385]
0.1 to 1 µM	Cc1nn(-c2ccc3cn[nH]c3c2)c2cc(-c3ccnn3Cc3ccc(Cl)cc3)cnc12 [Example 386]
0.1 to 1 µM	CC(c1ccc(Cl)c[n+]1[O-])n1c(-c2cc3c(cc2F)nnn3-c2ccc3cn[nH]c3c2)cc[n+]1[O-] (stereo not drawn) [Example 387]
> 1 µM	Cc1ccc(F)c(-n2nccc2-c2cc(F)c3nnn(-c4ccc5cn[nH]c5c4)c3c2)c1 [Example 388]
0.1 to 1 µM	N#Cc1ccc(Cn2nccc2-c2cc(F)c3c(N)nn(-c4ccc5cn[nH]c5c4)c3c2)cc1 [Example 389]
0.1 to 1 µM	Cc1ccc(C(C)n2nccc2-c2cc(Cl)c3nnn(-c4ccc5cn[nH]c5c4)c3c2)[n+]([O-])c1 (stereo not drawn) [Example 390]
> 1 µM	N#Cc1ccc(Cn2nccc2-c2cc3c(c[n+]2[O-])nnn3-c2ccc3[nH]c(=O)[nH]c3c2)cc1 [Example 391]
< 0.1 µM	Cc1ccc(Cn2nccc2-c2cc3c(cc2F)nnn3-c2ccc3cn[nH]c3c2)nc1 [Example 392]
0.1 to 1 µM	Cc1cccc(-n2nccc2-c2cc3c(cc2F)nnn3-c2ccc3cn[nH]c3c2)c1 [Example 393]
> 1 µM	Fc1cc(-c2ccnn2-c2ccc3[nH]ncc3c2)cc2c1nnn2-c1ccc2cn[nH]c2c1 [Example 394]
0.1 to 1 µM	Cc1ccc(C(C)n2nccc2-c2cc(F)c3nnn(-c4ccc5cn[nH]c5c4)c3c2)nc1 (stereo not drawn) [Example 396]
0.1 to 1 µM	Cc1ccc(Cn2nccc2-c2cc3c(cc2F)nnn3-c2ccc3cn[nH]c3c2)[n+]([O-])c1 [Example 397]
> 1 µM	Cc1cc2nnn(-c3ccc4cn[nH]c4c3)c2cc1-c1ccnn1C(C)c1ccc(C#N)cc1 (stereo not drawn) [Example 398]
> 1 µM	Cc1cc2nnn(-c3ccc4cn[nH]c4c3)c2cc1-c1ccnn1C(C)c1ccc(Cl)cn1 (stereo not drawn) [Example 399]
< 0.1 µM	N#Cc1ccc(Cn2nccc2-c2cc3c(cc2Cl)nnn3-c2ccc3cn[nH]c3c2)c(F)c1 [Example 400]
0.1 to 1 µM	CC(c1ccc(C#N)cc1)n1nccc1-c1cc2c(cc1Cl)nnn2-c1ccc2cn[nH]c2c1 (stereo not drawn) [Example 401]
0.1 to 1 µM	CC(c1ccc(Cl)cn1)n1nccc1-c1cc2c(cc1Cl)nnn2-c1ccc2cn[nH]c2c1 (stereo not drawn) [Example 402]
> 1 µM	N#Cc1cccc(-n2nccc2-c2cc3c(cc2Cl)nnn3-c2ccc3cn[nH]c3c2)c1 [Example 403]
